Reference: patent US10913714B2, “Pyrrole sulfonyl derivative, preparation method and medical use thereof” (JIANGSU CAREPHAR PHARMACEUTICAL CO., LTD, priority 2015, dated 2021)
Marks after values point to notes of the source that are not given here.

Experiments:
H^+/K^+-ATPase = target: T1, H^+/K^+-ATPase (Oryctolagus cuniculus, UniProt P27112); test: Inhibition of H+/K+-ATPase enzymatic activity (rabbit gastric mucosal microsomes, malachite green); assay type: biochemical; conditions: pH 6.5, 37° C. 30 min, read-out: The median inhibitory concentration (IC50) of the compound to the activity of H^+/K^+-ATPase
T1 construct: collecting the middle layer (H^+/K^+-ATPase enriched gastric membranes) into a clean centrifugal tube; from tissue; host or cells: rabbit stomach (gastric mucosal microsomes, sucrose/Ficoll gradient centrifugation)
T1 sequence (P27112 whole entry): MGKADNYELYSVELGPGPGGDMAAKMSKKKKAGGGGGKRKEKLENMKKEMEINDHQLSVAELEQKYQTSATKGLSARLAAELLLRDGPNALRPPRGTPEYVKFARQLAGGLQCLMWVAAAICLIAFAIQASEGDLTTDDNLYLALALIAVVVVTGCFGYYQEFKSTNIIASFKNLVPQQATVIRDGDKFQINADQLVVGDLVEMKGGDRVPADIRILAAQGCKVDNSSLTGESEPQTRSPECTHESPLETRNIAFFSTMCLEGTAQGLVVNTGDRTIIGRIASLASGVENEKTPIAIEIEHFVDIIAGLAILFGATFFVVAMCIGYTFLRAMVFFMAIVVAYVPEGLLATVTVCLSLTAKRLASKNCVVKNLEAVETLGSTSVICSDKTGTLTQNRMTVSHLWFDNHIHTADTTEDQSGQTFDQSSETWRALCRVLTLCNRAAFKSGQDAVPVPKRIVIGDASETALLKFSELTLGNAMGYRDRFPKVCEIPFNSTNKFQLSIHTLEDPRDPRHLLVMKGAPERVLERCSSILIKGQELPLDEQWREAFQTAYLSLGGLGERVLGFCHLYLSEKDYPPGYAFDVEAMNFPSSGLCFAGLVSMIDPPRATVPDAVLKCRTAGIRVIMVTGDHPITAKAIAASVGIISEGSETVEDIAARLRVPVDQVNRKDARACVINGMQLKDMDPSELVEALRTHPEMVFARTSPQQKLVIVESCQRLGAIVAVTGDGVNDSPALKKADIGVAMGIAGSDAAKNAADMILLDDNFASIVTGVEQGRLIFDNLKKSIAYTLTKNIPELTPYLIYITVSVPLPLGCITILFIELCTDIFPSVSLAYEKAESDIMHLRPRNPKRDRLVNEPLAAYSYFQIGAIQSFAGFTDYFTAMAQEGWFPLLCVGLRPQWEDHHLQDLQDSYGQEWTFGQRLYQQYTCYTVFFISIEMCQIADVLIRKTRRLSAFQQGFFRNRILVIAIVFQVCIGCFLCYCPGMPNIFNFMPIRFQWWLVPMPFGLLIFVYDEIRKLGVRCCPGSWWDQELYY
T1 sequence (P18597 whole entry partner): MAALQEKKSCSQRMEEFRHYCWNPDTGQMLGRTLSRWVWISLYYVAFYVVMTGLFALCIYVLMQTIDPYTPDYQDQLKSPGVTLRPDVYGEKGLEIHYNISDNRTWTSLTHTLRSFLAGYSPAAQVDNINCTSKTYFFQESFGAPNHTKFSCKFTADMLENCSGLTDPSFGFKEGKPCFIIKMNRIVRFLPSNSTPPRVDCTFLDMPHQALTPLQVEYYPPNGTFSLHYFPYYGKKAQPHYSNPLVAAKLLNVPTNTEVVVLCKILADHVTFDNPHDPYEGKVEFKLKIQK
Text: Biological Evaluation on H^+/K^+-ATPase
The following screening assays in vitro are used to evaluate the inhibiting effect of the compound of the Invention on the enzymatic activity of H^+/K^+-ATPase. Experimental materials and instruments are as follows:
1) Rabbit gastric mucosal microsomes (enriched H^+/K^+-ATPase; extracted by the Applicant)
2) Buffer solution: 50 mmol/L HEPEs-Tris, pH=6.5, 5 mmol/L magnesium chloride, 10 μmol/L valinomycin;
3) Buffer solution: 50 mmol/L HEPEs-Tris, pH=6.5, 5 mmol/L magnesium chloride, 10 μmol/L valinomycin, 5 mmol/L potassium chloride;
4) ATP: diluting ATP to 5 mM with buffer solution 1;
5) Malachite green solution: dissolving 0.12% of malachite green in 2.5 mol/L of sulfuric acid; mixing 7.5% (V/V) of ammonium molybdate and 11% of Tween 20(V/V) in a proportion of 100:25:2;
6) The method for extracting rabbit gastric mucosal microsomes (enriched H^+/K^+-ATPase) is sucrose gradient centrifugation, i.e., washing the rabbit stomach with tap water and 3M NaCl solution respectively and removing the surface moisture with filter paper; adding the pre-cooled buffer solution (4 ml/g tissue) for homogenation in a tissue homogenizer for 2-5 min; removing the large tissue particles in a way of centrifugation (600 g, 10 mm) if any after homogenation; transferring the supernatant to a clean centrifugal tube for centrifugation for 30 min at 2000 g; then transferring the supernatant to a clean centrifugal tube for further centrifugation for 90 min at 100000 g; collecting the sediment; suspending the sediment in the homogenate and blowing it to be uniform; measuring the protein concentration with Bradford method; adjusting the concentration to 10 mg/ml; adding 7.5% Ficoll demixing fluid in an equal proportion for centrifugation for 60 min at 100000 g; collecting the middle layer (H^+/K^+-ATPase enriched gastric membranes) into a clean centrifugal tube; diluting it with 4-5 times of homogenate for further centrifugation for 90 min at 100000 g; collecting the sediment; suspending the sediment in the homogenate for homogenation with a glass homogenizer; measuring the protein concentration with Bradford method and adjusting the concentration to 22.5 mg/ml; freezing it under −80° C. for standby. Experimental Process:
Adding 5 μL of gastric mucosal microsomes (H^+/K^+-ATPase) in 45 µL of buffer solution 2; adding 5 μL of the compound solution; adding 5 μL 5 mM of ATP to start the reaction for pre-reaction at 37° C. for 30 min; adding 15 μL of malachite green solution to terminate the reaction; balancing at ambient temperature for 20 min; reading the value of absorbed light at 620 nm.
Meanwhile, conducting another reaction with the same volume without potassium chloride for background, which will be subtracted when calculating the enzymatic activity.
The value of Compound IC50 is calculated through the inhibition ratios at different concentrations.

hERG potassium channel = target: T2, hERG potassium channel (Homo sapiens, UniProt Q12809); test: Whole cell patch clamp, inhibition of hERG tail current; assay type: cell-based
T2 construct: expressed in transfected cells
T2 sequence (Q12809 whole entry): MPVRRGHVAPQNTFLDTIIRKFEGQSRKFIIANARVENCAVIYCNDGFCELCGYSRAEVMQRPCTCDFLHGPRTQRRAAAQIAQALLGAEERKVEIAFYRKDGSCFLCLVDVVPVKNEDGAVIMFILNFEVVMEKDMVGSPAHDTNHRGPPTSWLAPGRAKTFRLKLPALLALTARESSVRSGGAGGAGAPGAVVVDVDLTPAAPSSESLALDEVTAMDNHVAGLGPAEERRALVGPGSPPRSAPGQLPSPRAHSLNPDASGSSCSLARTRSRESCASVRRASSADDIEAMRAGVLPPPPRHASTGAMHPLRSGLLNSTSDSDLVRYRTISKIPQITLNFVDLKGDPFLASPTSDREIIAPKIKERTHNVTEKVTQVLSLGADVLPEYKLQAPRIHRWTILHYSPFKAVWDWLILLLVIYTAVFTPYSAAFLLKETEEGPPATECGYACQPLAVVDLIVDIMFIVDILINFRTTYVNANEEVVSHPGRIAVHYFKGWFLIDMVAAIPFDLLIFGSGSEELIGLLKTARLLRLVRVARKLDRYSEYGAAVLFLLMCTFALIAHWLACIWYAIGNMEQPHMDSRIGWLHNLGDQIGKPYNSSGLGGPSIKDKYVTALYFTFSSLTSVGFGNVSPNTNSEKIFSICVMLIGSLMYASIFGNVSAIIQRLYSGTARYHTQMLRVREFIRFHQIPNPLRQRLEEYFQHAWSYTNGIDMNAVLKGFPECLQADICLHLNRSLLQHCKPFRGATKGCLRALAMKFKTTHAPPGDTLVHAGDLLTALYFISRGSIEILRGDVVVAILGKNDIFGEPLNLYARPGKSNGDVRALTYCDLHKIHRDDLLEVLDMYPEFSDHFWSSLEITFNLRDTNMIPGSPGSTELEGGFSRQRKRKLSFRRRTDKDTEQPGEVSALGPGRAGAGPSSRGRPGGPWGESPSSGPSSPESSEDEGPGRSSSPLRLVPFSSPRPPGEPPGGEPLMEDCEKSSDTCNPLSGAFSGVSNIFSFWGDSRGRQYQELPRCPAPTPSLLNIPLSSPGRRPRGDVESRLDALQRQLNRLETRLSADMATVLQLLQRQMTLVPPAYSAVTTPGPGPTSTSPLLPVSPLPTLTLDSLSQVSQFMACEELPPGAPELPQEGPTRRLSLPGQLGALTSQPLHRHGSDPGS
Description: Test Case 2: Studies on the Effect of Compounds EXP 1, TAK-438 and EXP 12 on hERG Potassium Channel Testing System 1) Cell culture: the hERG cell is cultured in a routine way, which is subcultured in a DMEM containing 10% of fetal calf serum and 250 μg/ml of G418. 2) Fluid preparation: the composition of the extracellular fluid used in the experiment of whole cell patch clamp comprises (mM): NaCl 145, MgCl21, KCl 4, Glucose 10, HEPES 10 and CaCl22; adjusting the pH value of NaOH to 7.4 and adjusting the value of osmotic pressure to 300 mOsm with sucrose. The composition of the intracellular fluid comprises (mM):KCl 140; MgCl 21; EGTA 5; HEPES 10 and Na2ATP 4; adjusting the pH value of KOH to 7.2 and adjusting the value of osmotic pressure to 290 mOsm with sucrose.
Main composition of the extracellular and intracellular fluid
Test Procedure 1) Electrophysiological recording: taking out one culture dish for each test; cleaning it with the extracellular fluid twice and placing it on the inverted microscope stage. The experiment of whole cell patch clamp is conducted at ambient temperature; the resistance at the microelectrode tip of the used borosilicate glass is 3-5 MQ. 2) Voltage stimulus plan and current record: clamping down the membrane potential to −80 mV under the whole-cell recording mode; giving +50 mV of depolarized voltage stimulus to the cell every 30 s and lasting for 2 s, then repolarizing it to −50 mV and lasting for 3 s, thus, the tail current of hERG can be extracted. Giving 50 ms, −50 mV repolarized voltage to the cell before depolarized voltage stimulus; the current recorded at such voltage is as the base line for calculating the tail current of hERG. Only the cells meet the recording standard can be used in the test of the compounds to be tested. The hERG tail current should be recorded stably at last for 3 min in the extracellular fluid before the compound is added. After perfusion of drugs, it can be regarded that the drug effect reaches a steady state if the change of the amplitude of hERG tail current is less than 5%. If the current fails to reach a steady state in 6 min, the test should also be terminated. 3) Testing standard: the membrane resistance in the experiment should be more than 1,000 MQ. The initial current should be more than 300 pA. The series resistance should be less than 12 MQ after the whole-cell recording mode is constructed. The leakage current is less than 10% of the ionic channel current (taking −80 pA as the peak value). Data Analysis
Using Clampex 10.2 to record the original data and saving the data in the format of *abf. Using pCLAMP 10.1 to conduct data collection and analysis. Selecting 4-5 sweeps when the current is in a steady state before the compound is added; calculating the average peak value to serve as the contrasted current amplitude. Selecting 4-5 sweeps when the current is in a steady state after the compound is added; calculating the average peak value to serve as the residual amplitude of the inhibited current. The inhibition ratio of the compound to be tested to hERG current is calculated as per the equation as: % inhibition ratio={1−(current residual amplitude)/(contrasted current amplitude)}*100
After the inhibition ratio (average value±standard deviation) of the compound to be tested to the hERG current of different concentrations is obtained through the above computing method, the data with logistic equation should be fitted to obtain the value of IC50.

[1] = tested on: gastric acid secretion induced by histamine; test: Gastric acid secretion induced by histamine in pylorus-ligated rats; assay type: in vivo; conditions: SD rat
Text: Test Case 3: Studies on the Effect of EXP 1, TAK-438 and EXP 14 on Gastric Acid Secretion Induced by Histamine Experimental Materials 1) Animals
SD rat, class SPF, male, 180-220 g; provided by Zhejiang Experimental Animal Center; production permit no.: SCXK (Z) 2014-0001.
Compound EXP 1, dissolved with a small amount of acetic acid (about 1.10N EXP 1), 0.9% sodium chloride solution to a clear liquid with needed concentration before use.
>Compound TAK-438, dissolved with 0.9% sodium chloride solution to a clear liquid with needed concentration before use.
Compound EXP 14, dissolved with a small amount of acetic acid (about 1.10N EXP 14), 0.9% sodium chloride solution to a clear liquid with needed concentration before use.
Fetching 60 SD rats of class SPF with a weight of 180-220 g; dividing the rats into 5 groups as per weights randomly, including Group EXP 1 (2 mg/kg), Group TAK-438 (2 mg/kg, as per free alkali), Group EXP 14 (2 mg/kg), Group negative control (normal saline of equal volume) and Group model control (normal saline of equal volume); 12 rats per group. Absolute diet for 24 h, water is allowed. After 24 h, administrating drugs to the tested compound groups A, B and C by gavage with a volume of 1 ml/100 g; each group is administered once; the negative control and model negative control groups are administrated by gavage with normal saline of equal volume. Narcotizing the rat with 300 mg/kg of chloral hydrate (1 ml/100 g) and fixing it onto the rat board; cutting to open the abdominal wall along the medioventral line from the mucronate cartilage with an incision of 2-3 cm; slightly pushing the left costal margin upward to expose the stomach in the incision. Ligaturing the pylorus thereunder (leave alone the adjacent blood vessels) and then suturing the abdominal incision. Giving histamine dihydrochloride (30 mg/10 m/kg) hypodermically to the rat 1 h after the tested compound or normal saline are administrated. Choking the rat to death with excessive CO2 3 h after the histamine is given; taking out the stomach and collecting the gastric contents for centrifugation at 3000 rpm/min; adjusting the PH value of the acid fluid to 7.0 with 0.1 mol/L of NaOH titration and then calculating the total acid content of the 3 h. Refer to Table 3 for results.

IC50 (H^+/K^+-ATPase) [nM] | SMILES | further results
100 to 1000 | CNCc1cc(-c2ccccc2F)n(S(=O)(=O)c2cccc(OC3CCN(C(C)=O)C3)c2)c1 (stereo not shown) [EXP 2, 1-(3-(3-((2-(2-fluorobenzene)-4-((methylamino)methyl)-1H-yl)sulfonyl)phenoxy)pyrrolidine-1-yl)ethyl-1-ketone] | –
100 to 1000 | CNCc1cc(-c2ccccc2F)n(S(=O)(=O)c2cccc(OCCOC)c2)c1 [EXP 3, 1-(5-(2-fluorobenzene)-1-((3-(2-methoxyethyoxyl)phenyl)sulfonyl)-1H-pyrrole-3-yl)-N-methyl methylamine] | –
< 100 | CNCc1cc(-c2ccccc2F)n(S(=O)(=O)c2cccc(OCCCS(C)(=O)=O)c2)c1 [EXP 4, 1-(5-(2-fluorobenzene)-1-((3-(3-methylsulphonylpropoxy)phenyl)sulfonyl)-1H-pyrrole-3-yl)-N-methyl methylamine] | –
100 to 1000 | CNCc1cc(-c2ccccc2F)n(S(=O)(=O)c2cccc(OCCN3CCOCC3)c2)c1 [EXP 5, 1-(5-(2-Fluorobenzene)-1-((3-(2-Morpholinyl Ethyoxyl)Phenyl)Sulfonyl)-1H-Pyrrole-3-Yl)-N-Methyl Methylamine] | –
100 to 1000 | CNCc1cc(-c2ccccc2F)n(S(=O)(=O)c2cccc(NCCN3CCOCC3)c2)c1 [EXP 6, 3-((2-(2-Fluorobenzene)-4-((Methylamino)Methylene)-1H-Pyrrole-1-Yl)Sulfonyl)-N-(2-Morpholinyl Ethyl) Henylamine] | –
100 to 1000 | CNCCCOc1cccc(S(=O)(=O)n2cc(CNC)cc2-c2ccccc2F)c1 [EXP 7, 3-(3-((2-(2-fluorobenzene)-4-((methylamino)methylene)-1H-pyrrole-1-yl)sulfonyl)phenoxy)-N-methyl-n-propylamine] | –
100 to 1000 | CNCc1cc(-c2ccccc2F)n(S(=O)(=O)c2cccc(OCC3CNCCO3)c2)c1 (stereo not shown) [EXP 8, 1-(5-(2-fluorobenzene)-1-((3-(morpholinyl-2-yl-methoxyl)phenyl)sulfonyl)-1H-pyrrole-3-yl)-N-methyl methylamine] | –
100 to 1000 | CNCc1cc(-c2ccccc2F)n(S(=O)(=O)c2cccc(OCC(C)(C)COC)c2)c1 [EXP 9, 1-(5-(2-fluorobenzene)-1-((3-(3-methoxy-2,2-dimethylpropoxy)phenyl)sulfonyl)-1H-pyrrole-3-yl)-N-methyl methylamine] | –
< 100 | CNCc1cc(-c2ccccc2F)n(S(=O)(=O)c2cccc(OCCOc3ccccc3)c2)c1 [EXP 10, 1-(5-(2-Fluorobenzene)-1-((3-(2-Phenoxy Ethyoxyl)Phenyl)Sulfonyl)-1H-Pyrrole-3-Yl)-N-Methyl Methylamine] | –
1000 to 5000 | CNCc1cc(-c2ccccc2F)n(S(=O)(=O)c2cccc(OCCN3CCCCC3)c2)c1 [EXP 11] | –
< 100 | CNCc1cc(-c2ccccc2F)n(S(=O)(=O)c2cccc(OC)c2)c1 [EXP 12] | IC50 (hERG potassium channel; human, hERG cells (host cell line not named), pH 7.4, whole cell patch clamp, logistic fit): 3950 nM; Inhibition ratio of max. test concentration (hERG current) (hERG potassium channel; max. test concentration 30 μM): 90.33 ± 2.16%
100 to 1000 | CNCc1cc(-c2ccccc2F)n(S(=O)(=O)c2cccc(OCC(=O)NC)c2)c1 [EXP 14, 2-(3-((2-(2-fluorophenyl)-4-((methylamine)methyl)-1H-pyrrole-1-yl)sulfonyl)phenoxy)-N-methylacetamide] | Total acid content ([1]; 2 mg/kg by gavage 1 h before histamine, total acid of 3 h): 0.65 ± 0.20** 10^−4 mol; Acid inhibiting rate % ([1]; 2 mg/kg by gavage, compared with model control): 40.4%
